Results published in patent US9029544B2, “Tricyclic pyridine derivatives, medicaments containing such compounds, their use and process for their preparation” (Boehringer Ingelheim International GmbH, priority 2010, dated 2015).
pIC50: −log10 of the molar value.

target: T1, Recombinant human CETP (Homo sapiens, UniProt P11597); experiment: CETP in vitro assay (fluorometric assay, Roar Biomedical; cholesterol ester transfer from HDL to LDL); format: biochemical; settings: recombinant human CETP from CHO cells; 3 hours at 37° C.; fluorescence 485/535 nm; compound concentrations between 1 nM and 30 μM; read-out: IC50 values for inhibition of CETP
T1 construct: made in house; host or cells: CHO cells (secreted into conditioned medium)
T1 sequence (P11597 18-493): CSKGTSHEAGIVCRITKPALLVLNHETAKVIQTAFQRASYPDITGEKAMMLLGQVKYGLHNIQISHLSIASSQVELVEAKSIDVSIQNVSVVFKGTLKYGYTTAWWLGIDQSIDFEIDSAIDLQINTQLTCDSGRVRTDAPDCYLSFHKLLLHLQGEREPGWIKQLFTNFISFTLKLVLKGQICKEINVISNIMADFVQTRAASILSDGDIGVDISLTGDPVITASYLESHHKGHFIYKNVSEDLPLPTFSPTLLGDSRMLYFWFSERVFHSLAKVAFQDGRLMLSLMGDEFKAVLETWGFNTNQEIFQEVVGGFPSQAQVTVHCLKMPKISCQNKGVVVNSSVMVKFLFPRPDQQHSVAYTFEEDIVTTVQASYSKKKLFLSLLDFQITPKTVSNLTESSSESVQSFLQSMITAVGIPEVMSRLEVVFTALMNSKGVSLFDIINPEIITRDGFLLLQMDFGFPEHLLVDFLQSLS
Procedure, shortened: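 Fluorometric transfer assay using donor and acceptor particles with recombinant human CETP partially purified from conditioned medium of CETP-expressing CHO cells. Compound in DMSO incubated 3 hours at 37° C; fluorescence Ex 485/Em 535 nm. IC50 from dose-effect curves over 1 nM to 30 μM.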

SMILES	pIC50
CC(=O)O[C@H]1c2nc(C(C)C)c3c(c2[C@@H](O)CC1(C)C)C1(CCOCC1)O[C@@H]3c1ccc(C(F)(F)F)cc1 [1(48), (3R,6R,9S)-9-hydroxy-4-isopropyl-7,7-dimethyl-3-(4-(trifluoromethyl)phenyl)-2′,3′,5′,6,6′,7,8,9-octahydro-3H-spiro[furo[3,4-c]quinoline-1,4′-pyran]-6-yl acetate]	6.85
CC(C)c1nc2c(c3c1[C@@H](c1ccc(C(F)(F)F)cc1)OC31CCOCC1)[C@@H](O)CC1(CCCC1)C2 [1(57), (3R,9S)-4-isopropyl-7,7-(butan-1,4-diyl)-3-(4-(trifluoromethyl)phenyl)-2′,3′,5′,6,6′,7,8,9-octahydro-3H-spiro[furo[3,4-c]quinoline-1,4′-pyran]-9-ol]	7.09
CC(C)c1nc2c(c3c1[C@@H](c1ccc(C(F)(F)F)nc1)OC31CCOCC1)[C@@H](O)CC1(CCC1)C2 [1(52), (3R,9S)-4-isopropyl-7,7-(propan-1,3-diyl)-3-(6-(trifluoromethyl)pyridin-3-yl)-2′,3′,5′,6,6′,7,8,9-octahydro-3H-spiro[furo[3,4-c]quinoline-1,4′-pyran]-9-ol]	7.27
CC1(C)Cc2nc(C3CCOCC3)c3c(c2[C@@H](O)C1)C1(CCOCC1)O[C@@H]3c1ccc(C(F)(F)F)c(C#N)c1 [1(74), 5-((3R,9S)-9-hydroxy-7,7-dimethyl-4-(tetrahydro-2H-pyran-4-yl)-2′,3′,5′,6,6′,7,8,9-octahydro-3H-spiro[furo[3,4-c]quinoline-1,4′-pyran]-3-yl)-2-(trifluoromethyl)benzonitrile]	7.00
CC(C)c1nc2c(c3c1[C@@H](c1ccc(C(F)(F)F)cn1)OC31CCOCC1)[C@@H](O)CC1(CCC1)[C@H]2O [5(8), (3S,6R,9S)-4-isopropyl-7,7-(propan-1,3-diyl)-3-(5-(trifluoromethyl)pyridin-2-yl)-2′,3′,5′,6,6′,7,8,9-octahydro-3H-spiro[furo[3,4-c]quinoline-1,4′-pyran]-6,9-diol]	7.38
CC(C)c1nc2c(c3c1[C@@H](c1ccc(S(F)(F)(F)(F)F)cc1)OC31CCCC1)[C@@H](O)CC(C)(C)C2 [1(71), (3′R,9′S)-4′-isopropyl-7′,7′-dimethyl-3′-(4-(pentafluorosulfanyl)phenyl)-6′,7′,8′,9′-tetrahydro-3′H-spiro[cyclopentane-1,1′-furo[3,4-c]quinolin]-9′-ol]	7.51
CC(C)c1nc2c(c3c1[C@@H](c1ccc(C(F)(F)F)c(C#N)c1)OC31CCOCC1)[C@@H](O)CC1(CCC1)C2 [1(79), 5-((3R,9S)-9-hydroxy-4-isopropyl-7,7-(propan-1,3-diyl)-2′,3′,5′,6,6′,7,8,9-octahydro-3H-spiro[furo[3,4-c]quinoline-1,4′-pyran]-3-yl)-2-(trifluoromethyl)benzonitrile]	7.74
CC(C)c1nc2c(c3c1[C@@H](c1ccc(C(C)(C)C)cc1)OC31CCCC1)[C@@H](O)CC(C)(C)[C@H]2O [4(3), (3′R,6′R,9′S)-3′-(4-tert-butylphenyl)-4′-isopropyl-7′,7′-dimethyl-6′,7′,8′,9′-tetrahydro-3′H-spiro[cyclopentane-1,1′-furo[3,4-c]quinoline]-6′,9′-diol]	7.68
O[C@H]1CC2(CCC2)[C@@H](O)c2nc(C3CCOCC3)c3c(c21)C1(CCOCC1)O[C@@H]3c1ccc(C(F)(F)F)cc1 [4(16), (3R,6R,9S)-7,7-(propan-1,3-diyl)-4-(tetrahydro-2H-pyran-4-yl)-3-(4-(trifluoromethyl)phenyl)-2′,3′,5′,6,6′,7,8,9-octahydro-3H-spiro[furo[3,4-c]quinoline-1,4′-pyran]-6,9-diol]	7.36
CC1(C)Cc2nc(C3CCOCC3)c3c(c2[C@@H](O)C1)C1(CCOCC1)O[C@@H]3c1ccc(S(F)(F)(F)(F)F)cc1 [1(61), (3R,9S)-7,7-dimethyl-4-(tetrahydro-2H-pyran-4-yl)-3-(4-(pentafluorosulfanyl)phenyl)-2′,3′,5′,6,6′,7,8,9-octahydro-3H-spiro[furo[3,4-c]quinoline-1,4′-pyran]-9-ol]	7.18
CC(C)c1nc2c(c3c1[C@@H](c1ccc(C(F)(F)F)c(F)c1)OC31CCOCC1)[C@@H](O)CC(C)(C)C2 [1(53), (3R,9S)-3-(3-fluoro-4-(trifluoromethyl)phenyl)-4-isopropyl-7,7-dimethyl-2′,3′,5′,6,6′,7,8,9-octahydro-3H-spiro[furo[3,4-c]quinoline-1,4′-pyran]-9-ol]	7.64
CC(C)c1nc2c(c3c1[C@@H](c1ccc(C(F)(F)F)cn1)OC31CCOCC1)[C@@H](O)CC(C)(C)[C@@H]2O [5(3), (3S,6S,9S)-4-isopropyl-7,7-dimethyl-3-(5-(trifluoromethyl)pyridin-2-yl)-2′,3′,5′,6,6′,7,8,9-octahydro-3H-spiro[furo[3,4-c]quinoline-1,4′-pyran]-6,9-diol]	5.57
CC1(C)C[C@H](O)c2c(nc(C3CCOCC3)c3c2C2(CCOCC2)O[C@@H]3c2ccc(C(F)(F)F)cc2)[C@@H]1O [4(11), (3R,6R,9S)-7,7-dimethyl-4-(tetrahydro-2H-pyran-4-yl)-3-(4-(trifluoromethyl)phenyl)-2′,3′,5′,6,6′,7,8,9-octahydro-3H-spiro[furo[3,4-c]quinoline-1,4′-pyran]-6,9-diol]	6.59
CC1(C)Cc2nc(C3CCOCC3)c3c(c2[C@@H](O)C1)C1(CCOCC1)O[C@@H]3c1ccc(C(F)(F)F)cn1 [1(73), (3S,9S)-7,7-dimethyl-4-(tetrahydro-2H-pyran-4-yl)-3-(5-(trifluoromethyl)pyridin-2-yl)-2′,3′,5′,6,6′,7,8,9-octahydro-3H-spiro[furo[3,4-c]quinoline-1,4′-pyran]-9-ol]	5.77
